In paper PMC11203978, “Discovery of Di(het)arylmethane and Dibenzoxanthene Derivatives as Potential Anticancer Agents” (International Journal of Molecular Sciences, 2024):
Structures can show the parent of a compound that is named as a salt. Where two headings read alike, the source gives them in different places.

What was measured:
M-HeLa = assay: MTT cytotoxicity, M-HeLa; assay type: cell-based, human; conditions: MTT, 48 h incubation, read-out: IC50 (µM) Cancer Cell Lines M-HeLa
Text: (§1) Cells and Materials. For the experiments, we used tumor cell cultures M-HeLa clone 11 (epithelioid carcinoma of the cervix, subline HeLa, clone M-HeLa), HuTu 80, human duodenal adenocarcinoma, Hep-2, human epithelial cells, SH-SY5Y, human neuroblast-like cells, A549, human lung adenocarcinoma, PA-1, human ovarian teratocarcinoma and MCF-7, a human mammary ductal adenocarcinoma from the collection of the Institute of Cytology, Russian Academy of Sciences (St. Petersburg, Russia); human liver cells (Chang liver) were from the collection and the Research Institute of Virology of the Russian Academy of Medical Sciences (Moscow, Russia).
(§2) MTT Assay. The cytotoxic effect on cells was determined using the colorimetric method of cell proliferation—the MTT test. NADP-H-dependent cellular oxidoreductase enzymes can, under certain conditions, reflect the number of viable cells. These enzymes reduce the tetrazolium dye (MTT) 3-(4,5-dimethylthiazol-2-yl)-2,5-diphenyl-tetrazolium bromide to insoluble blue-violet formazan, which crystallizes inside the cell. The amount of formed formazan is proportional to the number of cells with active metabolism. Cells were seeded on a 96-well Nunc plate at a concentration of 5 × 10^3 cells per well in a volume of 100 μL of medium and cultured in a CO2 incubator at 37 °C until a monolayer was formed. After the nutrient medium was removed, 100 µL of the test drug solutions at the given dilutions were added to the wells, which were prepared directly in the nutrient medium with the addition of 5% DMSO to improve solubility. After 48 h of incubation of the cells with the tested compounds, the nutrient medium was removed from the plates and 100 µL of the nutrient medium without serum with MTT at a concentration of 0.5 mg/mL was added and incubated for 4 h at 37 °C. Formazan crystals were added 100 µL of DMSO to each well. Optical density was recorded at 540 nm on an Invitrologic microplate reader (Novosibirsk, Russia). The experiments for all compounds were repeated three times.
(§3) Statistical analysis. The IC50 values were calculated using the MLA–Quest Graph™ IC50 Calculator (AAT Bioquest, Inc., Sunnyvale, CA, USA), 14 February 2022. Statistical analysis was performed with the Mann–Whitney test (p < 0.05). Tabular and graphical data contain averages and standard error.

HuTu 80 = assay: MTT cytotoxicity, HuTu 80; assay type: cell-based, human; conditions: for IC50: MTT, 48 h incubation, read-out: IC50 (µM) Cancer Cell Lines HuTu 80; for Selectivity index (SI) = IC50(normal)/IC50(tumoral): Chang liver vs HuTu 80
Text: as §1, §2, §3

Chang Liver = assay: MTT cytotoxicity, normal Chang liver cells; assay type: cell-based, human; conditions: 48 h incubation, read-out: IC50 (µM) Normal Cell Line Chang Liver
Text: as §1, §2, §3

melting point [°C] | SMILES | IC50 (M-HeLa; Homo sapiens, M-HeLa) [µM] | IC50 (HuTu 80; Homo sapiens, HuTu80, 48 h) [µM] | IC50 (Chang Liver; Homo sapiens, Chang liver) [µM] | Selectivity index (SI) = IC50(normal)/IC50(tumoral) (HuTu 80) | IC50 (M-HeLa) [µM] | IC50 (HuTu 80) [µM] | IC50 (Chang Liver) [µM] | IC50 (HuTu 80; Homo sapiens, HuTu80) [µM]
161 to 162 | C[P+](CC(=O)NCCC1c2c(ccc3ccccc23)Oc2ccc3ccccc3c21)(c1ccccc1)c1ccccc1 (as salt: salt) [Compound 6b] | – | – | – | – | – | – | – | –
164 to 165 | O=C(CCl)NCCCC1c2c(ccc3ccccc23)Oc2ccc3ccccc3c21 [Compound 3e] | 56.6 ± 4.4 | > 100 | 73.3 ± 6.4 | – | – | – | – | –
224 to 225 | O=C(NCC1c2c(ccc3ccc(O)cc23)Oc2ccc3ccc(O)cc3c21)c1nc2ccccc2[nH]1 [Compound 11b] | 94.3 ± 7.9 | 11.5 ± 0.9 | 53.1 ± 4.3 | – | – | – | – | –
187 to 188 | O=C(CCl)NCC(c1c(O)c2ccccc2oc1=O)c1c(O)c2ccccc2oc1=O | – | – | – | – | – | – | – | –
204 to 205 | O=C(C[P+](c1ccccc1)(c1ccccc1)c1ccccc1)NCCCC1c2c(ccc3ccccc23)Oc2ccc3ccccc3c21 [Compound 6c] | 26.6 ± 1.9 | 7.3 ± 0.6 | 33.4 ± 2.8 | 4.6 | – | – | – | –
180 to 182 | O=C(CCl)NCC(c1cc2c(cc1O)OCO2)c1cc2c(cc1O)OCO2 [Compound 4a] | > 100 | > 100 | > 100 | – | – | – | – | –
– | CCOC(CCNC(=O)CCl)OCC [Compound 2b] | > 100 | > 100 | > 100 | – | – | – | – | –
216 to 217 | O=C(NCC(c1cc2c(cc1O)OCO2)c1cc2c(cc1O)OCO2)c1nc2ccccc2[nH]1 [Compound 12a] | – | – | – | – | – | – | – | –
199 to 200 | C[P+](CC(=O)NCCCC1c2c(ccc3ccccc23)Oc2ccc3ccccc3c21)(c1ccccc1)c1ccccc1 [Compound 6d] | 53.2 ± 4.6 | 18.5 ± 1.5 | 56.2 ± 4.7 | 3 | – | – | – | –
> 250 | O=C(CCl)NCC1c2c(ccc3ccc(O)cc23)Oc2ccc3ccc(O)cc3c21 [Compound 3b] | 96.4 ± 8.4 | 53.9 ± 4.3 | 78.2 ± 6.8 | – | – | – | – | –
159 | O=C(C[n+]1ccccc1)NCCC(c1cc2c(cc1O)OCO2)c1cc2c(cc1O)OCO2 [Compound 9b] | 97.8 ± 8.2 | > 100 | 95.4 ± 8.7 | – | – | – | – | –
200 to 203 | O=C(CCl)NCC1c2c(ccc3ccccc23)Oc2ccc3ccccc3c21 [Compound 3a] | > 100 | > 100 | > 100 | – | – | – | – | –
– | COC(CNC(=O)c1nc2ccccc2[nH]1)OC [Compound 10a] | – | – | – | – | > 100 | > 100 | > 100 | –
> 250 | O=C(C[P+](c1ccccc1)(c1ccccc1)c1ccccc1)NCCC(c1cc2c(cc1O)OCO2)c1cc2c(cc1O)OCO2 [Compound 7b] | 65.8 ± 5.8 | 55.4 ± 4.5 | > 100 | – | – | – | – | –
147 to 149 | O=C(CCl)NCCC1c2c(ccc3ccccc23)Oc2ccc3ccccc3c21 [Compound 3c] | 49.6 ± 3.9 | 29.3 ± 2.1 | > 100 | – | – | – | – | –
189 to 191 | O=C(CCl)NCCCC(c1cc2c(cc1O)OCO2)c1cc2c(cc1O)OCO2 [Compound 4c] | > 100 | > 100 | > 100 | – | – | – | – | –
216 | O=C(NCC1c2c(ccc3ccccc23)Oc2ccc3ccccc3c21)c1nc2ccccc2[nH]1 [Compound 11a] | > 100 | > 100 | > 100 | – | – | – | – | –
137 to 139 | O=C(CCl)NCCC1c2c(ccc3ccc(O)cc23)Oc2ccc3ccc(O)cc3c21 [Compound 3d] | 38.4 ± 2.7 | 18.1 ± 1.4 | 54.8 ± 4.4 | 3 | – | – | – | –
180 | O=C(CCl)NCCCC1c2c(ccc3ccc(O)cc23)Oc2ccc3ccc(O)cc3c21 [Compound 3f] | – | – | – | – | – | – | – | –
263 to 265 | O=C(NCC(c1c(O)c2ccccc2oc1=O)c1c(O)c2ccccc2oc1=O)c1nc2ccccc2[nH]1 | – | – | – | – | – | – | – | –
– | COc1cccc2c1C(=O)c1c(O)c3c(c(O)c1C2=O)C[C@@](O)(C(=O)CO)C[C@@H]3O[C@H]1C[C@H](N)[C@H](O)[C@H](C)O1 [Doxorubicin, reference compound] | 3 ± 0.2 | 3 ± 0.2 | 3 ± 0.1 | 1 | – | – | – | –
189 to 191 | Cc1cc(O)c(C(CCNC(=O)c2nc3ccccc3[nH]2)c2c(O)cc(C)oc2=O)c(=O)o1 [Compound 12c] | – | – | – | – | – | – | – | –
166 to 168 | O=C(CCl)NCCC(c1cc2c(cc1O)OCO2)c1cc2c(cc1O)OCO2 [Compound 4b] | 84.6 ± 7.5 | 26.2 ± 1.7 | > 100 | – | – | – | – | –
– | C[P+](CC(=O)NCCC1c2c(ccc3ccccc23)Oc2ccc3ccccc3c21)(c1ccccc1)c1ccccc1 [Compound 6b] | 28.4 ± 1.8 | 64.3 ± 5.2 | > 100 | – | – | – | – | –
156 | O=C(C[n+]1ccccc1)NCCC1c2c(ccc3ccccc23)Oc2ccc3ccccc3c21.[Cl-] [Compound 8] | 85.2 ± 7.4 | 58.4 ± 4.6 | 100 ± 9.2 | – | – | – | – | –
– | CNC(=O)c1cc(Oc2ccc(NC(=O)Nc3ccc(Cl)c(C(F)(F)F)c3)cc2)ccn1 [Sorafenib, reference compound] | 35.6 ± 2.8 | 5 ± 0.4 | 35 ± 2.7 | 7 | – | – | – | –
178 to 180 | O=C(C[n+]1ccccc1)NCC(c1cc2c(cc1O)OCO2)c1cc2c(cc1O)OCO2 [Compound 9a] | > 100 | > 100 | > 100 | – | – | – | – | –
178 to 181 | O=C(C[P+](c1ccccc1)(c1ccccc1)c1ccccc1)NCC(c1cc2c(cc1O)OCO2)c1cc2c(cc1O)OCO2 [Compound 7a] | 73.5 ± 6.2 | 59.7 ± 4.6 | > 100 | – | – | – | – | –
– | COC(CNC(=O)CCl)OC [Compound 2a] | > 100 | > 100 | > 100 | – | – | – | – | –

SMILES | melting point [°C] | IC50 (M-HeLa; Homo sapiens, M-HeLa) [µM] | IC50 (HuTu 80; Homo sapiens, HuTu80, 48 h) [µM] | IC50 (Chang Liver; Homo sapiens, Chang liver) [µM] | Selectivity index (SI) = IC50(normal)/IC50(tumoral) (HuTu 80) | IC50 (M-HeLa) [µM] | IC50 (HuTu 80) [µM] | IC50 (Chang Liver) [µM] | IC50 (HuTu 80; Homo sapiens, HuTu80) [µM]
O=C(CCl)NCCC(c1c(O)c2ccccc2oc1=O)c1c(O)c2ccccc2oc1=O [Compound 5b] | 134 | 65.3 ± 5.4 | – | 68.1 ± 5.4 | – | – | – | – | 52.1 ± 4.2
